# Source: patent publication US20200000752A1, “Method for Treating Epilepsy” (Vanderbilt University, priority 2016, published 2020)
# Entries after “also recorded” stand apart in the source; their conditions may differ.
# What was measured:
# Scn1a^+/− mice = conditions: for Number SWDs: SWDs over 1 sec, 30 min after PTZ 50 mg/kg, n=2, celastrol 0.3 mg/kg intermittent (8th day of drug holiday), diazepam 0.3 mg/kg, stiripentol 150 mg/kg, saline 21
# CYP 2D6 = CYP 2D6 (Homo sapiens, UniProt P10635); test: biochemical
# CYP 2C19 [1] = target: T1, CYP 2C19 (Homo sapiens, UniProt P33261)
# CYP 2B6 = CYP 2B6 (Homo sapiens, UniProt P20813); test: biochemical
# CYP 2C9 = CYP 2C9 (Homo sapiens, UniProt P11712); test: biochemical
# CYP 1A2 [2] = target: T2, CYP 1A2 (Homo sapiens, UniProt P05177); test: biochemical
# CYP 2C8 = CYP 2C8 (Homo sapiens, UniProt P10632); test: biochemical
# [3] = system: cytochrome P450 enzymes (CYPs); conditions: cited from earlier work
# CYP 1A2 [4] = target: T2, CYP 1A2; test: CYP inhibition, 1A2
# CYP 2C19 [5] = target: T1, CYP 2C19; test: biochemical
# MDCKII cells = test: MDCKII bidirectional assay; assay type: in vitro ADME
# Text: MDCKII bidirectional assay was run in collaboration with Dr. Shaun Stauffer in Vanderbilt Institute of Chemical Biology (VICB) synthesis core who is a consultant on this project.
# T2 sequence (P05177 whole entry): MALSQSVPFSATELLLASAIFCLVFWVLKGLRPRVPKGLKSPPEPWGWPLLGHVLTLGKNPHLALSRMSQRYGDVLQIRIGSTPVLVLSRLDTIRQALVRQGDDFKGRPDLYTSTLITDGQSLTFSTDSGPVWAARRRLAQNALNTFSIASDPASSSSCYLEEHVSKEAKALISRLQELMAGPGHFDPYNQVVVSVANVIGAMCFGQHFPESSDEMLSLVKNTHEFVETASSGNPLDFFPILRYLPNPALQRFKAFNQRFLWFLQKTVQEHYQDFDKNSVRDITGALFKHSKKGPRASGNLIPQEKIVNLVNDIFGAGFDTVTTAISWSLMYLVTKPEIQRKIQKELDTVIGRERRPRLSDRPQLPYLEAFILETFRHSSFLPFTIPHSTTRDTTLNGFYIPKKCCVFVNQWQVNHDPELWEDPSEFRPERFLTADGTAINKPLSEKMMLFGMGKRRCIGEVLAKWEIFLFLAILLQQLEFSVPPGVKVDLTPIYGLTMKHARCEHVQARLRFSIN
# T1 sequence (P33261 whole entry): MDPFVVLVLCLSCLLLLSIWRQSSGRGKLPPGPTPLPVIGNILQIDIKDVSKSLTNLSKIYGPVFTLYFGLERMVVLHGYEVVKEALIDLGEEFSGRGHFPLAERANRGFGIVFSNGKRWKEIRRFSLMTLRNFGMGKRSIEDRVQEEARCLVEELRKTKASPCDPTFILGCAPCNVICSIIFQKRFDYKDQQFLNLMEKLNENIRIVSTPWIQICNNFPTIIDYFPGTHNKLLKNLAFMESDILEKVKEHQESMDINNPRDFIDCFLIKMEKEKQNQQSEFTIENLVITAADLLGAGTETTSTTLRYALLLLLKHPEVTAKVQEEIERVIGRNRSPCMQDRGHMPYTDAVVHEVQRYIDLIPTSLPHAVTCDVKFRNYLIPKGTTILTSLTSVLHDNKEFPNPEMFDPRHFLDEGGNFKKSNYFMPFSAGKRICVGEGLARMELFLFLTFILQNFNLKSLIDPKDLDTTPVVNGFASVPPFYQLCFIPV
# CYP 2C9, sequence (P11712 whole entry): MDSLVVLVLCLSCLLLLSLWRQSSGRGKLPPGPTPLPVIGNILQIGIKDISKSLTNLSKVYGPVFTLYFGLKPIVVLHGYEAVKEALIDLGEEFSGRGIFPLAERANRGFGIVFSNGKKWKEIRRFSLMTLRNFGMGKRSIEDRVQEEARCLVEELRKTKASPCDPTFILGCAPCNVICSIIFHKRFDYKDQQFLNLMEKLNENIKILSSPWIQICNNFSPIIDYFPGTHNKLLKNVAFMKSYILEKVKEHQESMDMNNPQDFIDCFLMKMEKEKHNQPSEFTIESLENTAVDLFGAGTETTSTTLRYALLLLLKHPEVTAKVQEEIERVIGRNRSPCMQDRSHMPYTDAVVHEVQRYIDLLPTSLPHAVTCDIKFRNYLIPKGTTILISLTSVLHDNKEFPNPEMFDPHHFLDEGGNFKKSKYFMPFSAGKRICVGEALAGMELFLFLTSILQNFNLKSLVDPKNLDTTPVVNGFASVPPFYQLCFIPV
# CYP 2B6, sequence (P20813 whole entry): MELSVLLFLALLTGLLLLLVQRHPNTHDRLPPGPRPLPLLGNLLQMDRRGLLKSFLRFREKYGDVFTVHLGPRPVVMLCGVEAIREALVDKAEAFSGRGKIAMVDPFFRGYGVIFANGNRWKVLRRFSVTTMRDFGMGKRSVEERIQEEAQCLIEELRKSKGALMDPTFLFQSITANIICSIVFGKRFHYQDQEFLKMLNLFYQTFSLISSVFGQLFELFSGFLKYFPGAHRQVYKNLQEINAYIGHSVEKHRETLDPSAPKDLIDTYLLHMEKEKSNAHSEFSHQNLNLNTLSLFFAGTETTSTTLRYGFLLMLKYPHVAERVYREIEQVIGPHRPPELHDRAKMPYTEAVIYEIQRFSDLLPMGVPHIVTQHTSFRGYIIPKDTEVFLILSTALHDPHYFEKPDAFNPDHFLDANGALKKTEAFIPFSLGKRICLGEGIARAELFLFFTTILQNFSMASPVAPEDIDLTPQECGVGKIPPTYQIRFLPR
# CYP 2C8, sequence (P10632 whole entry): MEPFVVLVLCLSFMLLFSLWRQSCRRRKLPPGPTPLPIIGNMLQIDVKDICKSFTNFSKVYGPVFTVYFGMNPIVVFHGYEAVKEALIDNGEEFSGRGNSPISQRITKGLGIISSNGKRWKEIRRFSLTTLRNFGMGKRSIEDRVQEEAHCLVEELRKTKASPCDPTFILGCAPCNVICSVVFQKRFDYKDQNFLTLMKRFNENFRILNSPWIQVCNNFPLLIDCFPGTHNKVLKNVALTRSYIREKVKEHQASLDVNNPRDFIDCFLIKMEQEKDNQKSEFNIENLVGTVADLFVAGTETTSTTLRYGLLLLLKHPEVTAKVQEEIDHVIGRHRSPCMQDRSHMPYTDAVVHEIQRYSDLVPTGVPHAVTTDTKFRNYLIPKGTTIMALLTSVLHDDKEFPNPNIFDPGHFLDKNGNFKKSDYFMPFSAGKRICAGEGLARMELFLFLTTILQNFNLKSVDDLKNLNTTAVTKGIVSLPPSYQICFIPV
# CYP 2D6, sequence (P10635 whole entry): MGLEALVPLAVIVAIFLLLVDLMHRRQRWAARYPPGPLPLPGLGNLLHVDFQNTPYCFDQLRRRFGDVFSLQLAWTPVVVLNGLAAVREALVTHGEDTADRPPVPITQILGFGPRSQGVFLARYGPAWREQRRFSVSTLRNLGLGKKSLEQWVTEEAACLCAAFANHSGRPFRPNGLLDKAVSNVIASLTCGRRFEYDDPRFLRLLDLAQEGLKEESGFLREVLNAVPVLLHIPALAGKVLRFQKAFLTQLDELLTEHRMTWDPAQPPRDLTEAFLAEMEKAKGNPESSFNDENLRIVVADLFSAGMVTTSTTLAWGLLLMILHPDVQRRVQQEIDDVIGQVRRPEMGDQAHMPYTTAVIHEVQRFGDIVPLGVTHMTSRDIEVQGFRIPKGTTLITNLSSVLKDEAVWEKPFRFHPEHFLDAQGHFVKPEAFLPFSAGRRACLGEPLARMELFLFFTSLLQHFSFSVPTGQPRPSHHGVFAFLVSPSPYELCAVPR
Structure (SMILES),Number SWDs (Scn1a^+/− mice),IC50 (CYP 2D6) [µM],"inhibition of 2C19, in words (CYP 2C19 [1])","appearance and mortality (Scn1a^+/− mice; mouse, in vivo, 300 mg/kg)",IC50 (CYP 2B6) [µM],IC50 (CYP 2C9) [µM],IC50 (CYP 1A2 [2]) [µM],IC50 (CYP 2C8) [µM],CYP inhibition as reported in the literature [3],"inhibition of 1A2, in words (CYP 1A2 [4])",IC50 (CYP 2C19 [5]) [µM],"permeability in MDCK II bidirectional assay, in words (MDCKII cells)"
CN1C(=O)CN=C(c2ccccc2)c2cc(Cl)ccc21 [Diazepam],8,–,–,–,–,–,–,–,–,–,–,–
CC(C)(C)C(O)/C=C/c1ccc2c(c1)OCO2 (stereo not shown) [Stiripentol],11,> 10,potent inhibitor; also recorded: very potent inhibitor,appeared lethargic and had increased mortality,8.82,> 10,1.26,> 10,"inhibit CYPs including 1A2, 2C9, 2C19, 2D6 and 3A4",potent inhibitor; also recorded: very potent inhibitor,1.84,–
"COc1cc(/C=C/C(=O)CC(=O)/C=C/c2ccc(O)c(OC)c2)ccc1O [curcumin, reference compound]",–,–,–,–,–,–,–,–,–,–,–,impermeable
